Results as given in US10206394B2, “Herbicidal compounds” (Syngenta Participations AG, priority 2014, dated 2019).
Like-named read-outs stand apart in the source and are kept apart here.

What was measured:
Format in all cases: in vivo
[1] = tested on: Alopecurus myosuroides (ALOMY); assay: Glasshouse assay for herbicidal activity (pre- and post-emergence), percentage phytotoxicity; details: Alopecurus myosuroides
Procedure, shortened: (§1)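 Pot-grown plants treated one day after sowing (pre-emergence) or at about 12 days (post-emergence); glasshouse at 24/18° C (warm) or 20/16° C (cool species) day/night, 16 h light, 65% humidity. Visual % phytotoxicity (0 = none, 100 = total damage) scored at 15 DAA post or 20 DAA pre.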

[2] = tested on: Avena fatua (AVEFA); assay: as above; details: Avena fatua
Procedure, shortened: as §1

[3] = tested on: Echinochloa crus-galli (ECHCG); assay: as above; details: Echinochloa crus-galli
Procedure, shortened: as §1

[4] = tested on: Lolium perenne (LOLPE); assay: as above; details: Lolium perenne
Procedure, shortened: as §1

[5] = tested on: Winter Wheat variety 'Hereward'; assay: Glasshouse assay for crop safety, post-emergence, +/- safener cloquintocet-mexyl (CQC), percentage phytotoxicity; details: 250 g/ha, evaluated after 13 days, 100=total damage, 0=no damage
Description: Test—Glasshouse Assay for Crop Safety.
Seeds of the Winter Wheat variety ‘Hereward’ were seed treated with a wettable powder formulation of the cereal herbicide safener, cloquintocet mexyl, at a rate of 0.5 grams per kilogram of dry seed prior to the initiation of glasshouse testing. Three seeds were sown per 1.5 inch plastic pot into a sandy loam soil at a depth of 1 cm, 8 days prior to application of the test compounds and was watered and grown under controlled conditions in a glasshouse (at 24/16° C., day/night; 14 hours light; 65% humidity). The plants were sprayed Post-emergence with an aqueous spray solution derived from the formulation of the technical active ingredient in acetone/water (50:50) solution containing 0.5% Tween 20 (polyoxyethelyene sorbitan monolaurate, CAS RN 9005-64-5).
The test plants were then grown in a glasshouse under controlled conditions (at 24/16° C., day/night; 14 hours light; 65% humidity) and watered twice daily. After 13 days for pre and post-emergence, the test was evaluated (100=total damage to plant; 0=no damage to plant).

[6] = post-emergence, 360 h, Rate 250 g/ha, post-emergence, visual assessment 15 DAA, 100%=total damage, 0%=no damage, read-out: Post-emergence herbicidal activity (percentage phytotoxicity) ALOMY POST
[7] = pre-emergence, 480 h, Rate 250 g/ha, pre-emergence, visual assessment 20 DAA, 100%=total damage, 0%=no damage, read-out: Pre-emergence herbicidal activity (percentage phytotoxicity) ALOMY PRE
[8] = post-emergence, 360 h, Rate 250 g/ha, post-emergence, visual assessment 15 DAA, 100%=total damage, 0%=no damage, read-out: Post-emergence herbicidal activity (percentage phytotoxicity) AVEFA POST
[9] = pre-emergence, 480 h, Rate 250 g/ha, pre-emergence, visual assessment 20 DAA, 100%=total damage, 0%=no damage, read-out: Pre-emergence herbicidal activity (percentage phytotoxicity) AVEFA PRE
[10] = post-emergence, 360 h, Rate 250 g/ha, post-emergence, visual assessment 15 DAA, 100%=total damage, 0%=no damage, read-out: Post-emergence herbicidal activity (percentage phytotoxicity) ECHCG POST
[11] = pre-emergence, 480 h, Rate 250 g/ha, pre-emergence, visual assessment 20 DAA, 100%=total damage, 0%=no damage, read-out: Pre-emergence herbicidal activity (percentage phytotoxicity) ECHCG PRE
[12] = post-emergence, 360 h, Rate 250 g/ha, post-emergence, visual assessment 15 DAA, 100%=total damage, 0%=no damage, read-out: Post-emergence herbicidal activity (percentage phytotoxicity) LOLPE POST
[13] = pre-emergence, 480 h, Rate 250 g/ha, pre-emergence, visual assessment 20 DAA, 100%=total damage, 0%=no damage, read-out: Pre-emergence herbicidal activity (percentage phytotoxicity) LOLPE PRE

| Compound | pest or weed control at 250 g/ha [1, 6] | pest or weed control at 250 g/ha [1, 7] | pest or weed control at 250 g/ha [2, 8] | pest or weed control at 250 g/ha [2, 9] | pest or weed control at 250 g/ha [3, 10] | pest or weed control at 250 g/ha [3, 11] | pest or weed control at 250 g/ha [4, 12] | pest or weed control at 250 g/ha [4, 13] | also measured |
| --- | --- | --- | --- | --- | --- | --- | --- | --- | --- |
| Cc1cc(C)c(C2C(=O)CC(CC(=O)NCCc3ccccc3)C2=O)c(C)c1 (centres unmarked) [Compound A1, 2-[2,4-dioxo-3-(2,4,6-trimethylphenyl)cyclopentyl]-N-phenethyl-acetamide] | – | – | – | – | – | – | – | – | pest or weed control at 250 g/ha ([1]; post-emergence, 360 h, Rate 250 g/ha, post-emergence, assessed visually 15 DAA, 100%=total damage, 0%=no damage, read-out: Post-emergence herbicidal activity (percentage phytotoxicity) ALOMY POST): 60%; pest or weed control at 250 g/ha ([1]; pre-emergence, 480 h, Rate 250 g/ha, pre-emergence, assessed visually 20 DAA, 100%=total damage, 0%=no damage, read-out: Pre-emergence herbicidal activity (percentage phytotoxicity) ALOMY PRE): 60%; pest or weed control at 250 g/ha ([2]; post-emergence, 360 h, Rate 250 g/ha, post-emergence, assessed visually 15 DAA, 100%=total damage, 0%=no damage, read-out: Post-emergence herbicidal activity (percentage phytotoxicity) AVEFA POST): 60%; pest or weed control at 250 g/ha ([2]; pre-emergence, 480 h, Rate 250 g/ha, pre-emergence, assessed visually 20 DAA, 100%=total damage, 0%=no damage, read-out: Pre-emergence herbicidal activity (percentage phytotoxicity) AVEFA PRE): 60%; pest or weed control at 250 g/ha ([3]; post-emergence, 360 h, Rate 250 g/ha, post-emergence, assessed visually 15 DAA, 100%=total damage, 0%=no damage, read-out: Post-emergence herbicidal activity (percentage phytotoxicity) ECHCG POST): 80%; pest or weed control at 250 g/ha ([3]; pre-emergence, 480 h, Rate 250 g/ha, pre-emergence, assessed visually 20 DAA, 100%=total damage, 0%=no damage, read-out: Pre-emergence herbicidal activity (percentage phytotoxicity) ECHCG PRE): 90%; pest or weed control at 250 g/ha ([4]; post-emergence, 360 h, Rate 250 g/ha, post-emergence, assessed visually 15 DAA, 100%=total damage, 0%=no damage, read-out: Post-emergence herbicidal activity (percentage phytotoxicity) LOLPE POST): 80%; pest or weed control at 250 g/ha ([4]; pre-emergence, 480 h, Rate 250 g/ha, pre-emergence, assessed visually 20 DAA, 100%=total damage, 0%=no damage, read-out: Pre-emergence herbicidal activity (percentage phytotoxicity) LOLPE PRE): 100%; Post-emergence Crop Selectivity, percentage phytotoxicity, Wheat +CQC ([5]; with safener cloquintocet-mexyl (CQC) seed treatment 0.5 g/kg seed): 0%; Post-emergence Crop Selectivity, percentage phytotoxicity, Wheat − CQC ([5]; without safener cloquintocet-mexyl (CQC)): 60% |
| CCSC(=O)OC1=C(c2c(C)cc(-c3ncc(Cl)cn3)cc2C)C(=O)C(CC(=O)NC(C)(C)C)C1 (centres unmarked) [Compound P5] | – | – | – | – | – | – | – | – | pest or weed control at 250 g/ha ([1]; post-emergence, 360 h, post-emergence, 250 g/ha, 15 DAA, visual score (100%=total damage; 0%=no damage), read-out: ALOMY POST herbicidal activity (percentage phytotoxicity)): 100%; pest or weed control at 250 g/ha ([1]; pre-emergence, 480 h, pre-emergence, 250 g/ha, 20 DAA, visual score (100%=total damage; 0%=no damage), read-out: ALOMY PRE herbicidal activity (percentage phytotoxicity)): 100%; pest or weed control at 250 g/ha ([2]; post-emergence, 360 h, post-emergence, 250 g/ha, 15 DAA, visual score (100%=total damage; 0%=no damage), read-out: AVEFA POST herbicidal activity (percentage phytotoxicity)): 100%; pest or weed control at 250 g/ha ([2]; pre-emergence, 480 h, pre-emergence, 250 g/ha, 20 DAA, visual score (100%=total damage; 0%=no damage), read-out: AVEFA PRE herbicidal activity (percentage phytotoxicity)): 90%; pest or weed control at 250 g/ha ([3]; post-emergence, 360 h, post-emergence, 250 g/ha, 15 DAA, visual score (100%=total damage; 0%=no damage), read-out: ECHCG POST herbicidal activity (percentage phytotoxicity)): 100%; pest or weed control at 250 g/ha ([3]; pre-emergence, 480 h, pre-emergence, 250 g/ha, 20 DAA, visual score (100%=total damage; 0%=no damage), read-out: ECHCG PRE herbicidal activity (percentage phytotoxicity)): 100%; pest or weed control at 250 g/ha ([4]; post-emergence, 360 h, post-emergence, 250 g/ha, 15 DAA, visual score (100%=total damage; 0%=no damage), read-out: LOLPE POST herbicidal activity (percentage phytotoxicity)): 100%; pest or weed control at 250 g/ha ([4]; pre-emergence, 480 h, pre-emergence, 250 g/ha, 20 DAA, visual score (100%=total damage; 0%=no damage), read-out: LOLPE PRE herbicidal activity (percentage phytotoxicity)): 100% |
| CCOCOC1=C(c2c(C)cc(-c3ncc(Cl)cn3)cc2C)C(=O)C(CC(=O)NC(C)(C)C)C1 (centres unmarked) [Compound P6] | 100% | 100% | 90% | 100% | 100% | 100% | 100% | 100% | – |
| Cc1cc(-c2ncc(Cl)cn2)cc(C)c1C1=C(OC(=O)N2CCCC2)C(CC(=O)NC(C)(C)C)CC1=O (centres unmarked) [Compound P7] | 70% | 0% | 60% | 10% | 80% | 50% | 40% | 30% | – |
| Cc1cc(-c2ncc(Cl)cn2)cc(C)c1C1=C(OC(=O)N2CCCC2)CC(CC(=O)NC(C)(C)C)C1=O (centres unmarked) [Compound P8] | 70% | 30% | 80% | 10% | 90% | 70% | 70% | 50% | – |
| COCCCN(C(=O)CC1CC(OC(=O)C(C)(C)C)=C(c2c(C)cc(C)cc2C)C1=O)C(=O)C(C)(C)C (centres unmarked) [Compound P9] | 80% | 90% | 80% | 60% | 80% | 90% | 80% | 90% | – |
| COCCCNC(=O)CC1CC(OC(=O)C(C)(C)C)=C(c2c(C)cc(C)cc2C)C1=O (centres unmarked) [Compound P10] | 90% | 90% | 90% | 60% | 90% | 90% | 90% | 90% | – |
| Cc1cc(C)c(C2=C(OC(=O)C(C)(C)C)CC(CC(N)=O)C2=O)c(C)c1 (centres unmarked) [Compound P11] | 80% | 70% | 90% | 30% | 90% | 90% | 90% | 80% | – |
| Cc1cc(C)c(C2=C(OC(=O)C(C)(C)C)CC(CC(=O)N(C(=O)C(C)(C)C)C3COC3)C2=O)c(C)c1 (centres unmarked) [Compound P12] | 80% | 20% | 60% | 0% | 60% | 70% | 80% | 60% | – |
| Cc1cc(C)c(C2=C(OC(=O)C(C)(C)C)CC(CC(=O)NC3COC3)C2=O)c(C)c1 (centres unmarked) [Compound P13] | 80% | 50% | 70% | 10% | 80% | 20% | 70% | 10% | – |
| Cc1cc(C)c(C2=C(OC(=O)C(C)(C)C)CC(CC(=O)N(C(=O)C(C)(C)C)C3(C)COC3)C2=O)c(C)c1 (centres unmarked) [Compound P14] | 80% | 70% | 80% | 10% | 70% | 70% | 80% | 70% | – |
| Cc1cc(C)c(C2=C(OC(=O)C(C)(C)C)CC(CC(=O)NC3(C)COC3)C2=O)c(C)c1 (centres unmarked) [Compound P15] | 90% | 70% | 80% | 40% | 80% | 100% | 80% | 80% | – |
